Measurements as given in PubChem BioAssay (NCI).
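Protocol summary: plate cells (96-well), add compound at 5 concentrations, incubate 48 h, interpolate endpoints linearly. Definition used: TGI = concentration required for complete inhibition of growth.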

How the values were obtained:
Assay in all cases: DTP human tumour cell line panel, 48 h
NCI-H226 lung = test system: NCI-H226 lung
OVCAR-5 ovarian = test system: OVCAR-5 ovarian
NCI-H23 lung = test system: NCI-H23 lung
K-562 leukemia = test system: K-562 leukemia
U251 CNS = test system: U251 CNS
MALME-3M melanoma = test system: MALME-3M melanoma
UACC-257 melanoma = test system: UACC-257 melanoma
HCT-15 colon = test system: HCT-15 colon
NCI/ADR-RES ovarian = test system: NCI/ADR-RES ovarian
NCI-H460 lung = test system: NCI-H460 lung
HCC-2998 colon = test system: HCC-2998 colon
COLO 205 colon = test system: COLO 205 colon
NCI-H522 lung = test system: NCI-H522 lung
SNB-75 CNS = test system: SNB-75 CNS
SF-539 CNS = test system: SF-539 CNS
HS 578T breast = test system: HS 578T breast
MDA-N = test system: MDA-N
CAKI-1 renal = test system: CAKI-1 renal
BT-549 breast = test system: BT-549 breast
HOP-92 NSCLC = test system: HOP-92 NSCLC
M14 melanoma = test system: M14 melanoma
SK-MEL-28 melanoma = test system: SK-MEL-28 melanoma
SK-MEL-2 melanoma = test system: SK-MEL-2 melanoma
CCRF-CEM leukemia = test system: CCRF-CEM leukemia
A498 renal = test system: A498 renal
OVCAR-8 ovarian = test system: OVCAR-8 ovarian
SW-620 colon = test system: SW-620 colon
EKVX NSCLC = test system: EKVX NSCLC
RXF 393 renal = test system: RXF 393 renal
MDA-MB-435 = test system: MDA-MB-435
786-0 renal = test system: 786-0 renal
UO-31 renal = test system: UO-31 renal
ACHN renal = test system: ACHN renal
SR leukemia = test system: SR leukemia
SF-268 CNS = test system: SF-268 CNS
SK-MEL-5 melanoma = test system: SK-MEL-5 melanoma
TK-10 renal = test system: TK-10 renal
RPMI-8226 leukemia = test system: RPMI-8226 leukemia
MCF7 breast = test system: MCF7 breast
PC-3 prostate = test system: PC-3 prostate
MOLT-4 leukemia = test system: MOLT-4 leukemia
DU-145 prostate = test system: DU-145 prostate
IGROV1 ovarian = test system: IGROV1 ovarian
HCT-116 colon = test system: HCT-116 colon
UACC-62 melanoma = test system: UACC-62 melanoma
SN12C renal = test system: SN12C renal
HOP-62 NSCLC = test system: HOP-62 NSCLC
A549 NSCLC = test system: A549 NSCLC
T-47D breast = test system: T-47D breast
SF-295 CNS = test system: SF-295 CNS
SK-OV-3 ovarian = test system: SK-OV-3 ovarian
KM12 colon = test system: KM12 colon
OVCAR-4 ovarian = test system: OVCAR-4 ovarian
SNB-19 CNS = test system: SNB-19 CNS
HL-60(TB) leukemia = test system: HL-60(TB) leukemia
OVCAR-3 ovarian = test system: OVCAR-3 ovarian
MDA-MB-231 breast = test system: MDA-MB-231 breast
HT29 colon = test system: HT29 colon
LOX IMVI melanoma = test system: LOX IMVI melanoma

Measured: TGI

N#C/C(=C\Nc1ccccn1)C(=O)C1CC1
> 100 µM: NCI-H226 lung | OVCAR-5 ovarian | NCI-H23 lung | K-562 leukemia | U251 CNS | MALME-3M melanoma | UACC-257 melanoma | HCT-15 colon | NCI/ADR-RES ovarian | NCI-H460 lung | HCC-2998 colon | COLO 205 colon | NCI-H522 lung | SNB-75 CNS | SF-539 CNS | HS 578T breast | MDA-N | CAKI-1 renal | BT-549 breast | HOP-92 NSCLC | M14 melanoma | SK-MEL-28 melanoma | SK-MEL-2 melanoma | CCRF-CEM leukemia | A498 renal | OVCAR-8 ovarian | SW-620 colon | EKVX NSCLC | RXF 393 renal | MDA-MB-435 | 786-0 renal | UO-31 renal | ACHN renal | SR leukemia | SF-268 CNS | SK-MEL-5 melanoma | TK-10 renal | RPMI-8226 leukemia | MCF7 breast | PC-3 prostate | MOLT-4 leukemia | DU-145 prostate | IGROV1 ovarian | HCT-116 colon | UACC-62 melanoma | SN12C renal | HOP-62 NSCLC | A549 NSCLC | T-47D breast | SF-295 CNS | SK-OV-3 ovarian | KM12 colon | OVCAR-4 ovarian | SNB-19 CNS | HL-60(TB) leukemia | OVCAR-3 ovarian | MDA-MB-231 breast | HT29 colon | LOX IMVI melanoma

[N-]=[N+]=NCC1OC(n2cnc3c(N)ncnc32)C2OC12 (stereo not drawn)
> 100 µM: NCI-H226 lung | OVCAR-5 ovarian | NCI-H23 lung | K-562 leukemia | U251 CNS | MALME-3M melanoma | UACC-257 melanoma | HCT-15 colon | NCI/ADR-RES ovarian | NCI-H460 lung | HCC-2998 colon | COLO 205 colon | NCI-H522 lung | SNB-75 CNS | SF-539 CNS | HS 578T breast | MDA-N | CAKI-1 renal | BT-549 breast | HOP-92 NSCLC | M14 melanoma | SK-MEL-28 melanoma | SK-MEL-2 melanoma | CCRF-CEM leukemia | A498 renal | OVCAR-8 ovarian | SW-620 colon | EKVX NSCLC | RXF 393 renal | MDA-MB-435 | 786-0 renal | UO-31 renal | ACHN renal | SR leukemia | SF-268 CNS | SK-MEL-5 melanoma | TK-10 renal | RPMI-8226 leukemia | MCF7 breast | PC-3 prostate | MOLT-4 leukemia | DU-145 prostate | IGROV1 ovarian | HCT-116 colon | UACC-62 melanoma | SN12C renal | HOP-62 NSCLC | A549 NSCLC | T-47D breast | SF-295 CNS | SK-OV-3 ovarian | KM12 colon | OVCAR-4 ovarian | SNB-19 CNS | HL-60(TB) leukemia | OVCAR-3 ovarian | MDA-MB-231 breast | HT29 colon | LOX IMVI melanoma
